We go through two compounds from PMC4213378, “Pharmacokinetics and Efficacy of the Spleen Tyrosine Kinase Inhibitor R406 after Ocular Delivery for Retinoblastoma” (Pharmaceutical Research, 2014).

Data set [1] is described as follows: Plasma pharmacokinetics after oral or subconjunctival administration. Type of data set: in vivo, mouse. Conditions: local (subconjunctival), mice. As for the experimental part: For oral delivery of R788, the target dose of 25 mg/kg R788 was administered by oral gavage as a 4 mM solution in 0.01 N citrate buffer, pH 6 ([9]). For subconjunctival administration, R788 was prepared at a concentration of 4 mM in 2% PEG-800 and filtered through a 0.22 μm filter prior to use (see Table S1). R788 was also administered subconjunctivally as a suspension at a concentration of 25 mM in 10% 2-hydroxylpropyl-β-cyclodextrin (HPβCD, Sigma-Aldrich). For subconjunctival administration, R406 phenylsulfonate salt was administered at a concentration of 800–900 μM as a cosolvent solution in a formulation of 5% Cremaphor-eL, 0.5% ethanol, 0.2% Tween 80 and 94.3% PBS, filtered through a 0.22 μm filter prior to use (see Table S2). R406 phenylsulfonate salt was also administered subconjunctivally at a dose of 31.4 mM solution in DMSO. R406 free base was administered subconjunctivally at a concentration of 6.5 mM as a 25% castor oil (Sigma-Aldrich) emulsion. This emulsion was prepared by mixing castor oil: ethanol (1:1) solution of R406 (approx. 35 mM), in vacuo evaporation of the ethanol, and centrifugation to remove any excess R406, then emulsifying the R406 oil phase in an aqueous phase comprised of Cremaphor-eL, Tween 80 and PBS (final composition of the emulsion: 25% castor oil, 5% Cremaphor-eL, 0.2% Tween-80, 69.8% PBS) by probe sonication. For intravitreal injection, R788 solution was prepared by filtering a 0.12 mM (120 μM) solution of R788 in saline through a 0.22 μm filter. […] For topical delivery, 25–30 mM suspensions were prepared in 5% HPβCD. R406 or R788 concentration in all formulations was determined by UPLC prior to study (in cases where formulation was filtered before administration, concentration was determined post-filtering) Table I.
For the systemic delivery study R788 was administered as a single bolus dose (25 mg/kg, 10 mL/kg volume) by oral gavage. For the subconjunctival administration study R788 or R406 (10 µL of formulation) was injected into the subconjunctival space of an anesthetized mouse using a Hamilton microliter syringe (Hamilton company, Reno NV). For the intravitreal administration study, R788 (5 μL of […] in saline) was administered to each eye via direct injection. To perform the intravitreal injection, mice were anesthetized, a small incision between the sclera and the cornea was created with a […] needle, and the R788 was injected into the vitreous using a Hamilton microliter syringe. For the topical administration study, R406 (2 μL of 25–30 mM suspension) was applied as a drop to the surface of each eye of an anesthetized mouse.
At serial time points (0.5, 1, 2, 4, and 8 h post-injection, n = 3 for each time point), blood was collected by terminal cardiac puncture after isoflurane anesthesia. Whole-blood samples were centrifuged immediately at 10,000×g for 5 min at 4°C to separate plasma. Once the cardiac puncture and blood collection was completed, the animal was perfused with 10 mL of saline and euthanized by cervical dislocation. Eyes were removed, rinsed in PBS, gently patted dry, then rinsed and dried again. Eyes were dissected and vitreous was collected. Plasma and vitreous samples were put on dry ice immediately after collection and stored at −80°C until analysis. For quantitative analysis methods and assay validation methods and results, see Supplementary Information.
Plasma and vitreous concentration time data were analyzed using non-compartmental analysis in WinNonlin 6.2 (Pharsight, Mountain View, CA), providing PK parameters including Cmax (maximum observed concentration), Tmax (time to reach maximum observed concentration), AUC (area under the concentration time curve) and MRT (mean residence time). AUC and AUMC (area under the concentration time first moment curve) values were estimated with the linear trapezoidal method, with parameters calculated using mean concentration values at each time point. […]

Data set [2] can be described thus: Storage stability of R406 in murine vitreous samples. Type of data set: physicochemical, mouse. As for the experimental part:
Stability: The extracted solution stability of R406 from murine plasma or vitreous was assessed at low (41.2nM), medium (370.4 nM), and high (3333.3 nM) concentrations in triplicate at room temperature. Blank murine plasma was spiked with the indicated concentrations of R406 and extracted solutions were stored at room temperature for day 0, and day 2. The short-term stability of R406 in murine plasma or vitreous at -20 °C was assessed at three concentrations in triplicate. […] internal standard/acetonitrile as described previously: for murine plasma samples, 50 µL of sample was quenched by addition of 100 µL of 5 mg/L OSI-906 (internal standard) in 100% acetonitrile, followed by plate sealing, shaking and centrifuging, transfer of 100 µL of supernatant injection of 10 µL of supernatant onto the LC–MS/MS system; for murine vitreous samples, 5 µL of sample quenched by addition of 45 µL of 5 mg/L OSI-906 (internal standard) in 100% acetonitrile, followed by plate sealing, shaking and centrifuging, transfer of 40 µL of supernatant injection of 10 µL of supernatant onto the LC–MS/MS system. Long term stability of R406 in murine plasma or vitreous at −80 °C was assessed. Unextracted spiked murine plasma or vitreous at low, medium, and high levels was frozen at −80 °C for 0, 7, and 14 days. Samples were thawed immediately extracted with acetonitrile/OSI-906, and quantitated. All samples were analyzed in triplicates.

Data set [3] in a line: Storage stability of R406 in murine plasma samples. Type of data set: physicochemical, mouse. Conditions: murine plasma at -20°C, thawed on Day 3, injected at Day 3.
Where [4] appears, read: co-solvent solution 0.88 mM, 8.8 nmol per eye.

With `COc1cc(Nc2ncc(F)c(Nc3ccc4c(n3)NC(=O)C(C)(C)O4)n2)cc(OC)c1OC.O=S(=O)(O)c1ccccc1` [R406 phenylsulfonate salt], in data set [1] (DMSO 31.4 mM, 314 nmol per eye), the highest level (Cmax) was 370 nM, the “Plasma AUClast” value was 0.298 µM·h, the “Plasma Dose normalized AUC” value is reported as 0.5 nM∙h/nmol and the “Plasma Tlast” value came to 4 h. The “Plasma Tmax” value in data set [1] (DMSO 31.4 mM, 314 nmol per eye) was 30 min. For the same compound, in data set [1] (setting [4]), the Cmax was found to be 79 nM, the “Plasma AUClast” value was found to be 0.0429 µM·h, the “Plasma Dose normalized AUC” value was found to be 2.4 nM∙h/nmol and the “Plasma Tlast” value was 1 h. Moreover, in data set [1] (setting [4]), the “Plasma Tmax” value was 30 min.

Regarding `COc1cc(Nc2ncc(F)c(Nc3ccc4c(n3)NC(=O)C(C)(C)O4)n2)cc(OC)c1OC` [R406], the “time extracted samples were stable” value in data set [2] (extracted from murine vitreous, room temperature) is “at least 48 hours”. The Accuracy% was 91.6% in data set [2] (extracted vitreous samples in autosampler for 2 days, injected at Day 3, High Control 3333.3 nM); 96.0% in data set [2] (extracted vitreous samples in autosampler for 2 days, injected at Day 3, Low Control 41.2 nM); 88.8% in data set [2] (extracted vitreous samples in autosampler for 2 days, injected at Day 3, Middle Control 370.4 nM); 91.1% in data set [2] (murine vitreous at -20°C, thawed on Day 2, injected at Day 3, High Control 3333.3 nM); 109.4% in data set [2] (murine vitreous at -20°C, thawed on Day 2, injected at Day 3, Low Control 41.2 nM); 93.2% in data set [2] (murine vitreous at -20°C, thawed on Day 2, injected at Day 3, Middle Control 370.4 nM). Further, the Accuracy% in data set [2] (murine vitreous at -20°C, thawed on Day 3, injected at Day 3, High Control 3333.3 nM) is 90.3%; in data set [2] (murine vitreous at -20°C, thawed on Day 3, injected at Day 3, Low Control 41.2 nM), 96.6%; in data set [2] (murine vitreous at -20°C, thawed on Day 3, injected at Day 3, Middle Control 370.4 nM) it was 94.4%; in data set [2] (murine vitreous at -80°C, injected at Day 8, High Control 3333.3 nM), 96.4%; in data set [2] (murine vitreous at -80°C, injected at Day 8, Low Control 41.2 nM), 78.7%; in data set [2] (murine vitreous at -80°C, injected at Day 8, Middle Control 370.4 nM), 87.5%. Besides, the Accuracy% is 105.2% in data set [2] (murine vitreous at -80°C, injected at Day 15, High Control 3333.3 nM); 105.5% in data set [2] (murine vitreous at -80°C, injected at Day 15, Low Control 41.2 nM); 99.4% in data set [2] (murine vitreous at -80°C, injected at Day 15, Middle Control 370.4 nM); 90.3% in data set [3] (High Control 3333.3 nM); 96.1% in data set [3] (Low Control 41.2 nM). The “time spiked samples were stable” value in data set [2] (murine vitreous stored at -20°C) is “at least 72 hours”; in data set [2] (murine vitreous stored at -80°C), ≥ 14 days.
